Structures are written as SMILES.

This data set is described as follows: gradient 5% acetonitrile 3 min, to 50% in 2 min, to 85% in 15 min, held 3 min, 100 µL/min. The following applies: column: Zorbax Extend-C18 2.1 x 50 mm; eluents: water / acetonitrile, 0.1% formic acid. The gist of the method: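 Data were gathered over 3 months by HPLC coupled to a quadrupole time-of-flight mass spectrometer, operated in positive and negative ionization mode. Mixtures of ~100 pure standards ran on a Zorbax Extend-C18 column (2.1 × 50 mm, 1.8 μm) at 100 μL/min, with water and acetonitrile each containing 0.1% formic acid and dead and dwell volumes of 40 μL and 900 μL. Retention time was read from adduct peaks picked by computer and checked manually.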
As for `CCCS(=O)(=O)N1CC(c2nc(CCOc3cccc(C)c3)no2)C1`, the RP-LC retention time came to 995 s. The same measure for `CCCN(CC1CCOC1)C(=O)Nc1cccc(Cl)c1F` (stereo not given): 853 s; for `Cc1ccc(NC(=O)NCC2CCOCC2)cc1F`: 710 s; for `CNS(=O)(=O)c1cccc(-c2nnc(-c3ccc(C)cc3)o2)c1`: 856 s. To `CCOc1ccccc1-c1noc(Cn2c(=O)n(-c3cccc(F)c3)c(=O)c3sccc32)n1` belongs 967 s. Turning to `COc1ccccc1NC(=O)N1CCCC1c1nc(-c2ccc(F)cc2F)no1` (stereo not given), the RP-LC retention time amounted to 1000 s. To `Cc1nc(-c2noc(-c3ccc(F)cc3)n2)cn1CC(=O)Nc1cccc(Cl)c1` belongs 918 s. The same measure for `CC(C)N1CCn2c(nc3cc(C(=O)NC4CCCCCC4)ccc32)C1=O`: 750 s; for `CC(CNC(=O)C1CCN(C(=O)C2Sc3ccccc3NC2=O)CC1)c1ccccc1` (stereo not given): 776 s; for `COc1ccc(NC(=O)Cn2c(=O)nc(N3CCC(C)CC3)c3ccccc32)c(OC)c1`: 831 s. The same measure for `COc1ccc(S(=O)(=O)Cc2nc(-c3ccccc3Cl)no2)cc1`: 966 s.

Compound `CCCC(C(=O)OCCN(CC)CC)(c1ccccc1)c1ccccc1` registered an RP-LC retention time of 920 s. To `O=c1n(CCOc2ccccc2)nc2c(S(=O)(=O)N3CCN(c4ccc(F)cc4)CC3)cccn12` belongs 1000 s; to `Cn1ccc2cc(S(=O)(=O)N3CCC(C(=O)N4CCN(Cc5ccccc5)CC4)CC3)ccc21`, 671 s. To `O=C(c1nnc(-c2csc(S(=O)(=O)N3CCN(c4ncccn4)CC3)c2)o1)N1CCCCC1` belongs 881 s.

In turn, `CCOc1ccc(OCC)c(NC(=O)CCc2c(-c3ccc(Cl)cc3)nc3ccccn23)c1` came in with an RP-LC retention time of 788 s. The same measure for `COc1cccc(C(=O)N2CCc3cc(-c4csc(C)n4)ccc32)c1`: 988 s; for `CCN(CC)C(=O)Cn1c(C(F)(F)F)nc2cc3c(cc21)OCCO3`: 811 s; for `CC(C(=O)NCc1cccs1)S(=O)(=O)c1ccc2c(c1)S(=O)(=O)N=CN2` (stereo not given): 628 s. The same measure for `CCn1ccc(C(=O)N2CC(n3cc(COC)nn3)C2)n1`: 605 s; for `COc1ccc(OC)c(NC(=O)Cc2csc3nc(-c4cccc(Br)c4)cn23)c1`: 1010 s. `COc1ccc(Cl)cc1N(C)C(=O)C1CCCN(c2ncnc3c2nc2n3CCCCC2)C1` (stereo not given) displayed an RP-LC retention time of 871 s.

Regarding `Cc1nc(-c2noc(-c3ccc(F)cc3)n2)cn1CC(=O)Nc1ccccc1`, the RP-LC retention time was 836 s. To `O=C(NCc1ccccn1)C(=O)NCC1OCCN1S(=O)(=O)c1cccs1` (stereo not given) belongs 563 s; to `CCCn1ncc(N2CCC(C(=O)NC(C)c3cccs3)CC2)cc1=O` (stereo not given), 716 s; to `CCOC(=O)N1CCC(NC(=O)Cn2ccc3ccccc32)CC1`, 731 s. The same measure for `Cc1ccc(C(=O)N2CCc3c(c(C(=O)N4CCCC(C(=O)NC5CC5)C4)nn3C)C2)cc1` (stereo not given): 661 s; for `COc1cc(Nc2c(C(=O)N3CCCCC3C)cnc3nc(C)ccc23)cc(OC)c1` (stereo not given): 649 s. Take `O=C(NC1CCCc2ccccc21)c1cc2sccc2n1Cc1ccc(Cl)cc1` (stereo not given): the RP-LC retention time turned out to be 1320 s. To `Clc1ccc(Cl)c(-c2ccc(CNCc3cccnc3)o2)c1` belongs 664 s.

As for `CCn1cc(S(=O)(=O)N2CCC(CCOc3ccccc3F)C2)cn1` (stereo not given), the RP-LC retention time was 948 s.

As to `O=C(/C=C/c1ccccc1)Nc1nc(-c2ccccc2)cs1`, the RP-LC retention time is 1070 s. The compound `CCOC(=O)c1ccccc1NC(=O)C1=Cc2ccccc2OC=C1` returned an RP-LC retention time of 1410 s. For `CC(C)c1nn2c(S(=O)(=O)NC3CCCCC3)c(C(C)C)nc2s1`, the RP-LC retention time was 1110 s. The same measure for `O=C(Nc1ccc(N2CCOCC2)cc1)C1CN(S(=O)(=O)C2CC2)CC12CCCCC2` (stereo not given): 812 s. In turn, `O=C(NCC1CC1)c1ccc2nc(-c3ccccc3)cn2c1` yielded an RP-LC retention time of 629 s. Take `O=C(Cc1csc(NC(=O)C2CCCC2)n1)Nc1nc(-c2cccnc2)cs1`: the RP-LC retention time was determined as 600 s. For the compound `O=S(=O)(Nc1cccnc1)c1cc(-c2nnc(-c3ccccc3)o2)ccc1F`, the RP-LC retention time amounted to 744 s. `Cc1oc(C(C)C)nc1C(=O)NC(C)c1ccccn1` (stereo not given) gave an RP-LC retention time of 610 s. To `CCN1C(=O)c2cccnc2Sc2cc(NC(=O)C3CCCC3)ccc21` belongs 816 s; to `O=C(Nc1ccc(O)c(C(=O)O)c1)Oc1ccccc1`, 801 s. To `CCOCCCNC(=O)Cn1nc(C)c2nn(-c3ccc(Cl)cc3)c(-n3cccc3)c2c1=O` belongs 898 s. The same measure for `Cc1ccc(C)c(N2CCN(C(=O)Cn3cnc4nc5c(cc4c3=O)CCCC5)CC2)c1`: 893 s; for `COc1ccc(Cl)cc1NC(=O)CN1C(=O)C2CCCCN2c2ccc(C(=O)N3CCCC3)cc21` (stereo not given): 934 s.

Regarding `CCOC(=O)COc1cc(-c2ccc(C)cc2)nc2ccc(NC(=O)c3ccco3)cc12`, the RP-LC retention time came out at 778 s.

As to `CCN1CCC2(CC1)N=C(c1ccc(Br)cc1)CC(c1cccc(OC)c1O)N2` (stereo not given), the RP-LC retention time stood at 618 s. `CCOC(=O)c1c(C)n(Cc2ccco2)c2ccc(O)cc12` displayed an RP-LC retention time of 854 s. To `O=S(=O)(c1cc(-c2nnc(-c3ccccc3)o2)ccc1F)N1CCOCC1` belongs 888 s; to `CC(C)c1c(C(=O)O)nnn1Cc1ccccc1`, 720 s; to `Cc1ccsc1C(=O)NC1(c2nc(-c3cnccn3)no2)CCCCC1`, 806 s. Turning to `CCC(CC)C(=O)N1CCC(Oc2nccnc2N(C)C)C1` (stereo not given), the RP-LC retention time was found to be 749 s. In the case of `O=C1CCCN1c1ccc(Cn2cc(-c3nc(-c4cccc(F)c4)no3)ccc2=O)cc1`, the RP-LC retention time amounted to 608 s. The same measure for `N#Cc1ccc(C(=O)N2CCOc3ccccc32)cc1`: 864 s.

As to `Cc1cccc(CN2C[C@@H]3C(=O)N(CCc4ccccc4)C(=O)[C@@H]3C2)c1`, the RP-LC retention time amounted to 777 s. To `CC(=O)Nc1nsc(N2CCC(C(=O)NCc3cccs3)CC2)n1` belongs 610 s; to `O=C(Cc1cn2cc(F)ccc2n1)Nc1ccc(Cl)cc1Cl`, 666 s; to `COc1ccc(OC)c(Nc2nc(NCCO)c3cnn(C)c3n2)c1`, 609 s.

`CCOc1ccc(-n2nnc(C(=O)OC)c2C(=O)OC)cc1` gave an RP-LC retention time of 882 s.

As to `Cn1nccc1-c1cccc(-c2noc(-c3ccc(C#N)cc3)n2)c1`, the RP-LC retention time turned out to be 1050 s. The same measure for `Cc1nc(-n2nc(C)c(Cl)c2C)sc1C(=O)N1CCOCC1`: 953 s.

(Values after the METLIN SMRT retention time set (Domingo-Almenara et al. 2019).)
